These results are taken from patent publication US20030124132A1 (University of Texas, published 2003).

Data set [1] relates to 2F2B mouse endothelial cells. Put plainly: Binding of tTF to tissue factor-expressing endothelial cells (FACS, cell bound coagulation assay). Format: cell-based. As to conditions: FACS analysis or cell bound coagulation assay. Here is the method:
Cells were washed and coagulation factor mix (as described above) was added. S2765 substrate was added and Factor Xa generation was measured as described above.
2F2B cells were stimulated with LPS (20 μg/ml) or TNFα (500 U/ml) for 4 h at 37° C. […] Fluorescent cells were detected on a flow cytometer (Becton Dickinson, San Jose, Calif.).

In the next data set the test system is bEnd 3 cells. The data set is described as follows: Cell bound coagulation assay on stimulated endothelial cells (Factor Xa generation). Format: cell-based, mouse. As to conditions: for Factor Xa generation due to Factor VIIa production: mix with 2 μg/ml factor VII and 0.01 μg/ml factor VIIa; for Factor Xa generation: mix with 0.5 μg/ml factor VIIa. On the procedure: (§1) To assay the coagulation induction of stimulated versus unstimulated endothelial cells, bend 3 cells were seeded in 48 well tissue culture plates at a density of 1×10^4 cells per well and allowed to adhere overnight. Cells were stimulated with endotoxin (0.5 μg/ml and 10 μg/ml) or TNFα (500 U/ml) for 4 h at 37° C. […] After incubation for 45 min at room temperature, cells were washed and incubated with various coagulation factor mixes as follows: (1) 0.5 μg/ml factor VIIa in a mix containing 2.8 μg/ml factor IX, 3.4 μg/ml factor X, 50 μM phospholipids, in calcium buffer (as specified above); (2) 0.01 μg/ml factor VIIa in a mix as in (1); (3) 2 μg/ml factor VII (Calbiochem-Novabiochem, San Diego, Calif.) in a mix as in (1); (4) 2 μg/ml factor VII. 0.01 μg/ml factor VIIa in a mix as in (1). The supernatant of wells was transferred into a 96 well ELISA plate. Substrate S2765 was added and Factor Xa generation measured alongside different concentrations of Factor Xa standard (7 nkatS2222; 0.7 nkatS2222; 0.07 nkatS2222). OD405 nm values were calculated as nkatS2222 Factor Xa from the Factor Xa standard curve.
as §1, with “bEnd” for “To assay the coagulation induction of stimulated versus unstimulated endothelial cells, bend”, “with” for “with various”, “mix” for “mixes”, “follows:” for “follows: (1)”, “buffer;” for “buffer (as specified above); (2) 0.01 μg/ml factor VIIa in a mix as in (1); (3) 2 μg/ml factor VII (Calbiochem-Novabiochem, San Diego, Calif.) in a mix as in (1); (4) 2 μg/ml factor VII. 0.01 μg/ml factor VIIa in a mix as in (1). The”

A further data set concerns C1300 (Muγ) tumors. The data set is described as follows: Coaguligand (B21-2/10H10 + tTF) treatment of C1300 (Muγ) tumors. Format: in vivo, BALB/c nu/nu mice. As to conditions: paraffin sections, 30 minutes to 24 hours after administration. An excerpt: To improve the C1300 (Muγ) tumor model, the C1300 (Muγ) cell line was subcloned into a cell line that can grow without being mixed with its parental cell, C1300, but still express the I-A^d MHC Class II antigen on the endothelial cells of the tumor. […] Vessels in other normal tissues were unstained.
Vessels contained platelet aggregates, packed red cells and fibrin. At this time, tumor-cells were viable, being indistinguishable morphologically from tumor cells in untreated mice. […]
To establish tumors, 10^6 to 1.5×10^7 tumor cells were injected subcutaneously into the right anterior flank of the mice. […] Other mice received equivalent quantities IgG, Fab′ or bispecific antibody alone. […]
Twenty-four hours after being injected with tTF or immunoglobulin-tTF conjugates, the mice were anesthetized with metophane and were exsanguinated by perfusion with heparinized saline. […] Blood vessels having open lumens containing erythrocytes and blood vessels containing thrombi were counted. […]
Other mice received equivalent quantities of bispecific antibody alone. […] Perpendicular tumor diameters were measured at regular intervals and tumor volumes were calculated.

Data set [2] relates to A20 lymphoma cells (I-A^d positive), mouse or human plasma. The data set is described as follows: In vitro coagulation assay on A20 cells with capture bispecific antibody B21-2/10H10. The conditions noted are these: for coagulation time: cells alone 190 seconds. Format: cell-based.
A further data set concerns F9 sarcoma tumors. The data set is described as follows: Tumor tissue necrosis in F9 sarcoma mouse model. Format: in vivo, balb/c nude mice. As to conditions: endotoxin-free tTF 4 μg; diluent 40-50% spontaneous necrosis. On the procedure: 1×10^7 F9 sarcoma cells were injected subcutaneously into the right flank of balb/c nude mice. Subcutanous tumors were measured with a caliper in three perpendicular directions a, b, and c, and volumes calculated according to the formula V=π/6×a'b×c. Treatment was initiated when subcutaneous tumors reached a size of 150 to 300 μl.
Reagents were administered into the lateral tail vein.
Mice were closely observed after treatment for clinical signs of toxicity and clinical status was documented at defined time points. Three days after treatment, mice were sacrificed and tumors were harvested. Paraffin embedded tissues were stained with hematoxilin and eosin (H&E). Tissue sections were analyzed on a light microscope by two independent investigators and histological findings were documented. Tumor sections with necrotic areas were scanned with a GS-700 imaging densitometer (Biorad, Hercules, Calif.) and areas of necrosis were calculated as % of total section area.

Turning to “tTF: extracellular domain of the mature Tissue Factor protein (amino acid 1-219), recombinant; depyrogenated in Example X”, in data set [1], the “binding to endothelial cells expressing tissue factor” value was “no binding of tTF to endothelial cells”. In addition, the “Factor Xa generation due to Factor VIIa production” value in the data set with bEnd 3 cells (cells stimulated with 0.5 μg/ml LPS (row Medium = stimulant alone)) is 3.00 nkats2222; in the data set with bEnd 3 cells (cells stimulated with TNFα (row Medium = stimulant alone)), 1.91 nkats2222; in the data set on bEnd 3 cells (cells stimulated with medium), 0.70 nkats2222. In addition, the “Factor Xa generation” value in the data set with bEnd 3 cells (cells stimulated with 0.5 μg/ml LPS, then incubated with row agent (row Medium = stimulant alone)) is 2.00 nkats2222; with bEnd 3 cells (cells stimulated with 10 μg/ml LPS, then incubated with row agent (row Medium = stimulant alone)), 2.91 nkats2222; with bEnd 3 cells (cells stimulated with TNFα (500 U/ml), then incubated with row agent (row Medium = stimulant alone)) it was 0.67 nkats2222; in the data set on bEnd 3 cells (cells stimulated with medium, then incubated with row agent) it was 0.40 nkats2222. Also, in the data set on C1300 (Muγ) tumors, the “thrombi or abnormalities in normal organs” value is “neither thrombi, nor histological or morphological abnormalities were visible”. Further, the results for the coagulation time in data set [2] (20,000 molecules of tTF per cell) and in data set [2] (300,000 molecules of tTF per cell) were 140 s and 40 s, respectively. For the same substance, the “concentration at which plasma coagulated in 50 seconds” value in data set [2] (bound via B21-2/10H10 to A20 cells, separate studies per block) worked out at 3 nM. Further, in data set [2] (cells incubated with tTF alone (not bound)), the “effect on coagulation time” value is listed as “no effect on coagulation time”. Moreover, the “time to visible fibrin strands after addition of mouse plasma” value in data set [2] (tTF bound to A20 cells by B21-2/10H10, untreated cells 164 seconds) was 36 s. In addition, in the data set on F9 sarcoma tumors, the “average tumor tissue necrosis” value came to 45%.
